Entries after “also recorded” stand apart in the source; their conditions may differ.
How the values were obtained:
[1] = system: fibrin-induced microglia activation; test: fibrin-induced microglia activation assay; assay type: cell-based; conditions: dose-dependent, fibrin stimulus, read-out: IC50, inhibition of fibrin-induced microglia activation
Description: (§1) To identify inhibitors of microglia activation, an assay as described in U.S. Ser. No. 15/109,163, was used to screen a library of 1907 clinical drugs and bioactive compounds. The criteria for hits were ≥50% inhibition of activation and ≤3% cell death to exclude toxic compounds. This represents a three standard deviation difference from the mean value of negative control activated cells. 128 compounds were selected from the screen that satisfied these criteria for dose response curves. Acivicin, a γ-glutamyl transpeptidase inhibitor, was identified among the compounds and was selected for additional characterization as it was an unexpected target for microglial activation and had not been previously linked with neurological diseases.
(§2) Throughout assay development, we consistently observed multiple-fold proliferation (increase in cell count) of microglia upon activation. Proliferation of fibrin-activated microglia cells was inhibited by treatment with acivicin. […] We also examined the effect of acivicin on microglia activation by other immunostimulatory agents.

[2] = system: LPS-induced microglia activation; test: LPS-induced microglia activation assay; assay type: cell-based; conditions: LPS stimulus; comparable to fibrin (FIG. 4)
Description: as §1, §2

microglia = test: cell toxicity in the microglia activation assay; assay type: cell-based; conditions: up to highest assay concentration of 20 μM
Description: as §1, §2

[3] = system: fibrin-activated microglia cells; test: proliferation of fibrin-activated microglia cells; assay type: cell-based; conditions: increase in cell count upon activation; dose-dependent (FIG. 3)
Description: as §2

MOG35-55 induced EAE = test: chronic EAE model (MOG35-55), prophylactic treatment, clinical score; assay type: in vivo; conditions: MOG35-55 mice; daily i.p. starting 0 day after immunization; vs saline
Description: (§3) To further study the ability of acivicin to inhibit microglial activation, acivicin was next studies for its ability to suppress disease progression and ameliorate the disease symptoms in the EAE animal models of multiple sclerosis. Two models of EAE were used: (1) mice immunized with MOG35-55 to induce chronic disease and (2) mice immunized with PLP139-151 to induce relapsing-remitting EAE.
First, to examine the ability of acivicin to prevent disease symptoms and/or progression to multiple sclerosis in a chronic EAE model, acivicin or saline were administered prophylactically to mice immunized with MOG35-55 to induce chronic disease. The mice were immunized with MOG35-55 to induce chronic disease. Acivicin or saline was administered daily by intraperitoneal (i.p.) injection, starting 0 day after immunization (n=15 saline, n=14 acivicin).

PLP139-151 induced EAE = test: relapsing-remitting EAE model (PLP139-151), therapeutic treatment, clinical score; assay type: in vivo; conditions: PLP139-151 mice; daily i.p. starting at peak EAE; vs saline
Description: as §3
Next, to assess the ability to therapeutic efficacy of acivicin to treat disease symptoms and/or progression in relapsing-remitting (PLP139-151) EAE model, mice were administered either acivicin or saline injections daily by intraperitoneal (i.p.) injection starting at the peak EAE phase of the EAE PLP139-151. (n=6 saline, and n=7 acivicin). Acivicin decreased the clinical severity of EAE during remission phases (FIG. 7).

[4] = system: Cx3cr1+ microglia and Ccr2+ monocytes; test: microglial accumulation and monocyte infiltration in Ccr2RFP/+Cx3cr1GFP/+ mice with MOG35-55 EAE; assay type: in vivo; conditions: prophylactic injection
Description: CNS-resident innate immune cell microglia and CNS-infiltrating inflammatory monocytes are essential for the inflammatory progression of EAE. Yamasaki, R. et al. J Exp Med 211, 1533-1549 (2014); Ajami, B. et al, Nature neuroscience 14, 1142-1149 (2011). To determine whether blocking the γ-glutamyl transpeptidase activity with acivicin inhibits microglial activation and infiltration of monocytes/macrophages in vivo in the EAE models, Ccr2^RFP/+Cx3cr1^GFP/+ mice in which resident microglia are GFP-positive and inflammatory monocytes are RFP-positive were used. Ryu, J. K. et al. Nat Commun 6, 8164 (2015). EAE was induced with MOG35-55, and mice were prophylactically injected with acivicin.

[5] = system: myelin damage and neuronal injury in EAE; test: MBP and SMI-32 immunohistochemistry in EAE; assay type: in vivo; conditions: after EAE induction; vs saline-treated mice
Description: To investigate whether acivicin can protect from myelin damage and neurodegeneration in EAE, MBP and SMI-32 immunohistochemistry was used to assess myelin damage and neuronal injury.

[6] = system: pro-inflammatory gene expression; test: real-time PCR of pro-inflammatory genes in spinal cords at the peak of EAE; assay type: in vivo, mice; conditions: spinal cord, peak of MOG35-55 EAE; vs saline
Description: To gain insight into the anti-inflammatory mechanism by which acivicin regulates the progression of inflammation after EAE, real-time PCR analysis was used. Real-time PCR analysis of expression of pro-inflammatory genes in the spinal cords of MOG35-55 treated mice was performed at the peak of EAE in the saline-treated and acivicin-treated mice (n=7 saline and n=7 acivicin).

## N[C@H](C(=O)O)[C@@H]1CC(Cl)=NO1 [acivicin]
[1]
  IC50: 2000 nM
[2]
  inhibition of microglia activation by LPS (potency): comparable low μM potency
microglia
  toxic cell death / cell toxicity: no apparent cell toxicity; also recorded: not evident
[3]
  proliferation of fibrin-activated microglia cells: inhibited
MOG35-55 induced EAE
  acute phase of EAE (clinical score): completely inhibited
PLP139-151 induced EAE
  clinical severity of EAE during remission phases: decreased
[4]
  accumulation of Cx3cr1+ microglia (% area GFP in spinal cord): significantly decreased
  infiltration of Ccr2+ monocytes (% area RFP): significantly decreased
[5]
  axonal injury (SMI-32 immunohistochemistry): dramatic reduction
  myelin damage (MBP immunohistochemistry): dramatic reduction
[6]
  EAE-induced transcription of Ccl5: inhibits
  EAE-induced transcription of Cxcl10: inhibits
  EAE-induced transcription of IL-1b: inhibits
  EAE-induced transcription of IL-12p40: inhibits
  EAE-induced transcription of iNOS: inhibits

— patent US20200289473A1, “METHODS OF TREATING NEURODEGENERATION” (The J David Gladstone Institutes a testamentary trust …, priority 2017, published 2020)
